Data as given in PubChem BioAssay AID1259338 (Broad Institute, 2017).
Active and inactive are the calls of the source.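 The calls were made as follows: active = compounds lowering the signal with a fitted AC50 at or below a set concentration limit; inconclusive = flat curve with 30 to 70% inhibition, or a poor fit; inactive = the rest.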

Target: Caspase recruitment domain-containing protein 9 (Homo sapiens) + E3 ubiquitin-protein ligase TRIM62 (Homo sapiens) (UniProt Q9H257+Q9BVG3)
Assay: disruptors of CARD9-TRIM62 binding, dose response, cell lysate, HEK293FT lysates, Luminex bead readout (AID 1259338); as to activity change, negative = inhibition: reference of the scale not given here
Details: Luminex bead PPI, MFI

Sequence of Caspase recruitment domain-containing protein 9 (Homo sapiens) + E3 ubiquitin-protein ligase TRIM62 (Homo sapiens) (Q9BVG3 whole entry, looked up, the tested form may be a part): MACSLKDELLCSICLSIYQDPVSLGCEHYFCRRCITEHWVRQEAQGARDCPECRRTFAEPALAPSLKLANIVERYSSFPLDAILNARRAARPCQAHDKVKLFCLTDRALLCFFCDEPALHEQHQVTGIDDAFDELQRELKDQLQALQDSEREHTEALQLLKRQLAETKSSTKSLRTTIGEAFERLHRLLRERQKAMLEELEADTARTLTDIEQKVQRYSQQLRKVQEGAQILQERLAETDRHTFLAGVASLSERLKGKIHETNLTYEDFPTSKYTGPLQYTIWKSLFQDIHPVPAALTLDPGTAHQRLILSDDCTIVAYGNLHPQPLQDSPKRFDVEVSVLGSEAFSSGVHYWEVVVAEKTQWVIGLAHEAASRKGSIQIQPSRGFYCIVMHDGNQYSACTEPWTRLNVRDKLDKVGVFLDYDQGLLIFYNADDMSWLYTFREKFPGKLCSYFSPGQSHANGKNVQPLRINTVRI
Sequence of Caspase recruitment domain-containing protein 9 (Homo sapiens) + E3 ubiquitin-protein ligase TRIM62 (Homo sapiens) (Q9H257 whole entry, looked up, the tested form may be a part): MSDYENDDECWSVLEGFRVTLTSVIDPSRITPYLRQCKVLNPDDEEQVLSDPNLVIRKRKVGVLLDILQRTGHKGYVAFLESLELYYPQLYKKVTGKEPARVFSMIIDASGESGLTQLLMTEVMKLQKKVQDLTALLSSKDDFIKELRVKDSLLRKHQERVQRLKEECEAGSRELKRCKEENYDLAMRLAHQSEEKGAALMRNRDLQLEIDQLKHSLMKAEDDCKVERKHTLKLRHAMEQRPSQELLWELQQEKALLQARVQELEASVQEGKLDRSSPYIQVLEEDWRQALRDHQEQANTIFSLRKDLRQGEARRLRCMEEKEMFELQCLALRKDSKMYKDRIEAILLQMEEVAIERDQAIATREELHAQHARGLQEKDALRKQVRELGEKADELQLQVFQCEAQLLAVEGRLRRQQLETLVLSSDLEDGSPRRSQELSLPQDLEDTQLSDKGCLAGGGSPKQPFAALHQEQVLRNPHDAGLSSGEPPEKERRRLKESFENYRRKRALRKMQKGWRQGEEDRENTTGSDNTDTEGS

Row | Structure (SMILES) | AC50
1 | Cc1noc(C)c1S(=O)(=O)Nc1ccc2c(c1)C(=O)N([C@H](C)CO)C[C@H](C)[C@@H](CN(C)C(=O)C1CCCCC1)OCCCC[C@H](C)O2 | > 160 µM (inactive)
2 | N#Cc1c(N)oc(-c2ccco2)c1-c1ccco1 | > 160 µM (inactive)
3 | O=C(NCc1cccnc1)c1ccccc1-c1nc(-c2ccccc2)no1 | > 160 µM (inactive)
4 | CCc1ccc(Nc2nc(C(=O)NCc3ccc(N(C)C)cc3)nc3ccccc23)cc1 | 49 µM
5 | COc1ccc(S(=O)(=O)N2CCN(C(=O)c3cc4c(s3)CCC4)CC2)cc1 | 63.1 µM
6 | O=C1C=C(c2ccccc2)Nc2ccccc2N1 | > 160 µM (inactive)
7 | Cc1ccc(C(=O)Nc2ccc(N3CCC(C(N)=O)(N4CCCCC4)CC3)c(C(=O)O)c2)cc1 | 24.3 µM
8 | Cc1ccc(Nc2nc(C(=O)Nc3ccc(Cl)cc3)nc3ccccc23)cc1 | 22.9 µM
9 | COc1ccc(S(=O)(=O)Nc2ccc3c(c2)C(=O)N([C@H](C)CO)C[C@H](C)[C@@H](CN(C)CC2CCCCC2)OCCCC[C@H](C)O3)cc1 | > 160 µM (inactive)
10 | NC(=O)C1(N2CCCCC2)CCN(c2ncc(NC(=O)c3ccccc3F)cc2C(=O)O)CC1 | 18 µM
11 | NC(=O)C1(N2CCCCC2)CCN(c2ncc(NC(=O)c3ccc(Cl)cc3)cc2C(=O)O)CC1 | 6.01 µM
12 | O=C(NC1CC1)c1cc(-c2ccco2)nc2ccccc12 | > 160 µM (inactive)
13 | COc1ccc(S(=O)(=O)c2ccccc2)cc1NS(=O)(=O)c1cccc(C(=O)O)c1 | > 160 µM (inactive)
14 | COc1cccc(NC(=O)CN(C)C(=O)c2cc3c(s2)CCC3)c1 | 50.6 µM
15 | CCCN1CCCn2nc(CNC(=O)[C@@H](N)Cc3ccc(O)cc3)cc2C1 | 27.8 µM
16 | NC(=O)C1(N2CCCCC2)CCN(c2ccc(NC(=O)c3ccccc3F)cc2C(=O)O)CC1 | 42 µM

Row | Structure (SMILES) | AC50
17 | Cc1ccc(C(=O)Nc2cnc(N3CCC(C(N)=O)(N4CCCCC4)CC3)c(C(=O)O)c2)cc1 | 8.64 µM
18 | O=[N+]([O-])c1cccc(-c2nnc3ccc4ccccc4n23)c1 | 80.2 µM
19 | CC(=O)c1cccc(OCC(=O)N(C)CC(=O)NCc2ccco2)c1 | 82.2 µM
20 | O=C(Nc1ccc2oc(-c3ccncc3)nc2c1)c1ccc2c(c1)OCO2 | 41.8 µM
21 | O=C(O)c1ccc2nc(-c3ccco3)c(-c3ccco3)nc2c1 | 34.7 µM
22 | O=C(Nc1ccc(OCC(=O)N2CCOCC2)cc1)c1cncc(Br)c1 | 42.1 µM
23 | Cc1ccc(-c2cc(C(=O)NCc3ccco3)c3ccccc3n2)o1 | 75 µM
24 | Nc1c(C(=O)NCc2ccco2)c2nc3ccccc3nc2n1CCN1CCOCC1 | > 160 µM (inactive)
25 | Cc1ccc2cc(CN(Cc3ccco3)S(C)(=O)=O)c(=O)[nH]c2c1 | > 160 µM (inactive)
26 | O=C(Nc1nccs1)c1cc(-c2ccco2)nc2ccccc12 | > 160 µM (inactive)
27 | NC(=O)C1(N2CCCCC2)CCN(c2ncc(NC(=O)c3cccs3)cc2C(=O)O)CC1 | 21.3 µM
28 | O=C1CC2(CCN(C(=O)Nc3ccccc3)CC2)CN1Cc1ccc(Cl)cc1 | 68.7 µM
29 | NC(=O)C1(N2CCCCC2)CCN(c2ncc(NC(=O)c3ccccc3)cc2C(=O)O)CC1 | 3.25 µM
30 | C=CC(=O)N1CCCC2(CCN(CCN3CCCC3)C2=O)C1 (stereo not drawn) | 1.53 µM
31 | COc1ccc(-n2c(C)c3c(OC)cccc(=O)c3c2C)cc1 | 79.7 µM

Same assay, conditions: Luminex bead PPI, MFI, at 38 µM (top of the series)

Row | Structure (SMILES) | activity change, negative = inhibition
32 | COc1ccc(NC(=O)c2nc(Nc3ccccc3)c3ccccc3n2)cc1 | inactive
33 | Cc1cccc(Nc2nc(C(=O)Nc3cc(F)ccc3F)nc3ccccc23)c1 | inactive
34 | Cc1ccc(C)n1Nc1nc(O)cs1 | inactive

Same assay, conditions: Luminex bead PPI, MFI, at 80 µM (top of the series)

Row | Structure (SMILES) | activity change, negative = inhibition
35 | O=C(COc1cccnc1[N+](=O)[O-])c1ccc(Cl)s1 | inactive
36 | C[C@H](CO)N1C[C@H](C)[C@H](CN(C)C(=O)C2CCCCC2)OCCCC[C@H](C)Oc2ccc(NS(=O)(=O)c3cccs3)cc2C1=O | inactive
37 | CCOC(=O)c1[nH]c(Cc2[nH]c(C(=O)OCC)c(C)c2C)c(C)c1C | inactive
38 | Cc1ccc(S(=O)(=O)Nc2ccc3c(c2)C(=O)N([C@H](C)CO)C[C@H](C)[C@@H](CN(C)CC2CCCCC2)OCCCC[C@H](C)O3)cc1 | inactive
39 | O=C1CC(c2ccco2)Cc2nc(N3CCc4ccccc4C3)ncc21 (stereo not drawn) | inactive
40 | Cc1cc(C(=O)NCc2ccco2)on1 | inactive
41 | O=C(O)COc1ccc(-n2cccc2)cc1 | inactive
42 | CCCOc1ccc(CCC(=O)O)cc1 | inactive
43 | O=C(Nc1ccc2c(c1)nc1n2CCN(C2CCCCC2)C1)c1ccco1 | inactive
44 | O=S(=O)(Nc1nc2ccccc2nc1NCc1ccco1)c1ccccc1 | inactive
45 | CS(=O)(=O)N1CCN(c2ccc([N+](=O)[O-])c(SCc3ccco3)c2)CC1 | inactive
46 | N#Cc1c2ccc(OCC(=O)NCc3ccco3)cc2n2ccccc12 | inactive
47 | C[C@H](CO)N1C[C@H](C)[C@@H](CN(C)C(=O)C2CCCCC2)OCCCC[C@H](C)Oc2ccc(NS(C)(=O)=O)cc2C1=O | inactive
48 | Cc1occc1C(=O)NCc1cccc(CNC(=O)c2ccoc2C)c1 | inactive
49 | Nc1cc2c(cc1-n1cccc1)OCCO2 | inactive
50 | COCCCNC(=O)C1CCN(c2ccc(N3CCOCC3)nn2)CC1 | inactive
51 | COC[C@]1(O)CCN(C(=O)CCN(C)S(C)(=O)=O)CC1(C)C | inactive
52 | CCCN1CCc2nc(SCc3nc(-c4ccc(OC)cc4OC)oc3C)[nH]c(=O)c2C1 | inactive
53 | Cc1sc2ncnc(SCc3ccco3)c2c1C | inactive
54 | N#CNc1nc(O)cc(=O)[nH]1 | inactive

Row | Structure (SMILES) | activity change, negative = inhibition
55 | COc1ccc(Nc2nc(-c3nnc(-c4ccc(F)cc4)o3)nc3ccccc23)cc1Cl | inactive
56 | CCOc1ccc(CNc2nc(-c3nnc(-c4ccc(F)cc4)o3)nc3ccccc23)cc1 | inactive
57 | O=C(CN1CCN(c2ccccc2O)CC1)NC(=O)NC1CCCC1 | inactive
58 | O=C(COC(=O)c1ccccc1Oc1ccccc1)NCc1ccco1 | inactive
59 | Cn1nnnc1SCCNCc1ccc(-c2cccc(C(F)(F)F)c2)o1 | inactive
60 | O=[N+]([O-])c1c(NCCCO)cc(SCc2ccco2)c2nonc12 | inactive
61 | COc1ccc(F)c(CN2C[C@H]3CC[C@@H]2CN(Cc2cscn2)C3)c1 | inactive
62 | CCc1oc2ccccc2c1C(=O)CCN1CCCCC1 | inactive
63 | O=C(Nc1nnc(-c2ccco2)s1)c1ccccc1 | inactive
64 | O=C(Nc1nc(-c2nc3ccccc3s2)cs1)c1ccco1 | inactive
65 | O=C(O)c1cc(-c2ccco2)nc2ccccc12 | inactive
66 | N#Cc1c2c(c(NCc3ccco3)n3c1nc1ccccc13)CCC2 | inactive
67 | CCOC(=O)c1ccc(-c2ccc(C3CC(=O)Nc4cc5c(cc43)OCCO5)o2)cc1 (stereo not drawn) | inactive
68 | O=C(COC(=O)c1cc(-c2ccco2)nc2ccccc12)NCc1ccc2c(c1)OCO2 | inactive
69 | Clc1ccc2nc(CN3CCCCCC3)cn2c1 | inactive
70 | N#Cc1sc2nc(-c3ccccc3)cc(-c3ccco3)c2c1N | inactive
71 | On1c(-c2ccco2)nc2c1CCc1nonc1-2 | inactive
72 | Cc1ccc(Nc2nc(C(=O)Nc3ccc(Br)cc3)nc3ccccc23)cc1 | inactive
73 | Cc1cccc(NC(=O)Cc2coc3ccc4ccccc4c23)n1 | inactive
74 | COc1cc(N)c(Cc2nccc3cc(OC)c(OC)cc23)cc1OC | inactive

Row | Structure (SMILES) | activity change, negative = inhibition
75 | COCC(=O)n1nc(-c2ccco2)nc1NCc1cccs1 | inactive
76 | O=c1/c(=C/c2ccco2)sc2nc3ccccc3n12 | inactive
77 | O=S(=O)(c1ccc(F)cc1)N1CN(Cc2ccco2)c2nc3ccccc3nc21 | inactive
78 | C[C@H](CO)N1C[C@H](C)[C@@H](CN(C)CC2CCCCC2)OCCCC[C@H](C)Oc2ccc(NS(=O)(=O)c3cn(C)cn3)cc2C1=O | inactive
79 | CC(=O)Nc1ccc2nc3c(=O)n(C)c(=O)n(C)c3nc2c1 | inactive
80 | C[C@H](CO)N1C[C@H](C)[C@@H](CN(C)CC2CCCCC2)OCCCC[C@H](C)Oc2ccc(NS(=O)(=O)c3cccs3)cc2C1=O | inactive
81 | CC(=O)c1sc2nc(-c3ccco3)ccc2c1N | inactive
82 | O=C(CCc1nc(-c2ccccc2)no1)NCC1CNCCOC1 (stereo not drawn) | inactive
83 | COc1ccc(S(=O)(=O)Nc2ccc3c(c2)C(=O)N([C@H](C)CO)C[C@H](C)[C@@H](CN(C)C(=O)C2CCCCC2)OCCCC[C@H](C)O3)cc1 | inactive
84 | Cc1[nH]c2ccc(Cl)cc2c(=O)c1CN1CCCC1 | inactive
85 | CC(C(=O)N1CCCC1)N1CCN(c2ccccc2O)CC1 (stereo not drawn) | inactive
86 | CCc1cc2c(=O)n(Cc3ccco3)c(SC)nc2s1 | inactive
87 | Cc1ccc(-c2nn(-c3ccccc3)cc2CN(Cc2ccccc2)C(=O)CCC(=O)O)o1 | inactive
88 | Cc1ccc(-c2cc(C(=O)Nc3ccccn3)c3ccccc3n2)o1 | inactive
89 | C[n+]1cccc2cccc(O)c21 | inactive
90 | CCN(CCNC(=O)C1CCN(S(=O)(=O)c2c(C)noc2C)CC1)c1ccccc1 | inactive
91 | COc1ccc(N2CC3=C(N2)c2ccccc2CC3)cc1 | inactive
92 | Cc1nc2ccccc2nc1CSCc1ccco1 | inactive
93 | O=c1oc(-c2ccccc2)nc2sc3c(c12)CCC3 | inactive
